From PubChem BioAssay (NCI)
Where “and” joins values, the source holds several entries; their conditions need not be identical. Equal values may be shown once.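 Assay format: 96-well plates, 48-hour exposure. GI50 is the concentration that inhibits growth by half. TGI is the concentration that stops growth completely.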

Assays:
Experiment in all cases: NCI-60 cell line screen, 48 h
[1] = test system: MDA-MB-435
[2] = test system: NCI/ADR-RES ovarian
[3] = test system: BT-549 breast
[4] = test system: DU-145 prostate
[5] = test system: DLD-1 colon
[6] = test system: DMS 114 small cell lung
[7] = test system: LXFL 529 NSCLC
[8] = test system: HOP-18 NSCLC
[9] = test system: MDA-N

SMILES	GI50 [1] [µM]	TGI [1] [µM]	GI50 [2] [µM]	TGI [2] [µM]	GI50 [3] [µM]	TGI [3] [µM]	GI50 [4] [µM]	TGI [4] [µM]	TGI [5] [µM]	TGI [6] [µM]	TGI [7] [µM]	TGI [8] [µM]	TGI [9] [µM]	GI50 [9]
Cc1c(C)c2ccc(OC/C=C3\CCC(=O)O3)cc2oc1=O	17.1	34.6	16.9	35.7	15.2	28.9	12.2	26.1						
Fc1ccc(Nc2nc(NCCNc3ccnc4cc(Cl)ccc34)nc(N3CCOCC3)n2)cc1	2.22	5.38	9.36	26.5	8.67	22	8.68	21.1						
O=C(O)CCC1CCc2cccc3occ1c23 (stereo not given)									> 100	> 100	> 100			
O=c1[nH]cnc2c(C3OC(CO)C(O)C3O)scc12 (stereo not given)	> 100	> 100	44.5	> 100	> 100	> 100	5.47	> 100						
COc1cc2cc(Oc3ccc(NC(=O)c4ccc(Cl)c(C(F)(F)F)c4)cc3)c(C)nc2cc1OC	14.7	> 100	4.21	> 100	8.86	70.2	26.2	> 100						
O=C(Cc1ccccc1)N/N=C(\C1=Nc2ccc([N+](=O)[O-])cc2NC1O)C(O)c1ccc([N+](=O)[O-])cc1 (stereo not given)									> 100		> 100	> 100		
CCOc1ccc(NC(=O)CC2SC(N)=NC2=O)cc1 (stereo not given)									> 100	> 100	> 100			
COc1cc(Oc2c(O)c(C)c(OC)c(C(C)=O)c2O)c(C(C)=O)c(O)c1C									> 100	> 100	> 100			
O=C(NN1C(=O)CSC1c1ccc(Cl)cc1)c1[nH]c2ccc(F)cc2c1-c1ccccc1 (stereo not given)	2.94	9.13	3	10.6	2.09	5.37	2.2	4.63						
O=C(Nc1ccc2c(c1)oc(=O)c1ccccc12)C(Cl)Cl		> 100		> 100		> 100		> 100					> 100	
COc1ccc(-c2ccc(/C=N/n3c(COc4ccc(Cl)cc4)n[nH]c3=S)o2)c([N+](=O)[O-])c1	25.9	> 100	15.8	50	13.6	50								
Cc1ncc([N+](=O)[O-])n1CCNC(=O)CCCn1cnc([N+](=O)[O-])n1		> 100		> 100				> 100					> 100	
C/C(=N\NC(N)=O)C(CN(C)C)C(c1ccccc1)c1c(O)c2ccccc2oc1=O (stereo not given)		> 100		> 100		> 100		> 100					> 100	
FC(F)(F)C12C34C=CC5(CCC6(C=CC1(CC3)O6)C52C(F)(F)F)O4 (stereo not given)											> 100	> 100		
CCc1c2c(nc3cccc(N)c13)-c1cc3c(c(=O)n1C2)COC(=O)[C@]3(O)CC	0.0349	1.54	0.0164	> 100	0.00656	0.0218	0.00161	> 100					> 100	0.0915 µM and 0.704 µM
CC(C)[C@@H](COC(C)(C)C)N=CN1CCc2c([nH]c3ccccc23)C1									> 100	> 100	> 100			
C/C1=C\CC[C@@](C)(O)[C@@H]2CC3[C@@H](OC(=O)C34CC4)[C@@H](O2)[C@H](C)CCC1 (stereo not given in full)	20.3	44.2	17	34										
CS(=O)(=O)Nc1cc(-c2ccc3ncnc(Nc4ccc5c(cnn5Cc5ccc(F)cc5)c4)c3c2)cnc1Cl	1.1	3.67	17	> 100	0.957	6.47	2.66	19.1						
Fc1ccc(Nc2nccc(-c3c(-c4ccc(C(F)(F)F)cc4)nn4ncccc34)n2)cc1F	> 25	> 25	> 25	> 25	> 25	> 25	> 25	> 25						
Nc1nc(OCc2ccccc2)nc2[nH]ncc12	16.2	30.5	17.6	42.4	23.2	54.8	18.4	> 100						
O=[N+]([O-])c1ccc(CS(=O)Cc2ccccc2)cc1 (stereo not given)		> 100		> 100		> 100		> 100					> 100	
Cn1cc(-c2ccc(CNc3cc(-c4cnc5cc(OCCCN6CCCC6)ccn45)ncn3)cc2)cn1	1.71	3.19	5.11	> 100	12.6	27.2	15.1	31.5						
O=C1c2ccccc2C(=O)C1C(c1ccc([N+](=O)[O-])cc1)C1C(=O)c2ccccc2C1=O									> 100		> 100	> 100		
O=C(Nc1cc(Cl)c(Cl)cc1Cl)C(=O)C(C(=O)c1ccc(Cl)c(Cl)c1)C1OC(=O)c2ccccc21 (stereo not given)									23.4	39.5	22.9			
O=c1oc2ccc(Cl)cc2c(=O)n1-c1ccc(I)cc1F	0.271	3.86	0.3	2.87	0.168	1	0.436	> 49.5						
O=C1CCC2(c3ccccc3)Nc3cc(Cl)ccc3N12 (stereo not given)									> 100	57.3	> 100			
CC(C)OC(=O)c1ccc2[nH]c(O)c(C(=Nc3ccc(N(C)C(=O)CN4CCN(C)CC4)cc3)c3ccccc3)c2c1	1.07	2.3			1.28	2.68	0.408	1.63						
C[C@H](CS(C)(=O)=O)Nc1ncc2cc(Oc3ccc(F)cc3F)c(=O)n(C)c2n1	> 25	> 25	> 25	> 25	> 25	> 25	> 25	> 25						
C=C(C)CCC(C)N1CCC(N2CCC(C(=O)NCCc3ccccc3)CC2)CC1 (stereo not given)	14	28.5	37.4	> 100	12.1	> 100	> 100	> 100						
CC(CCCOC(c1ccccc1)(c1ccccc1)c1ccccc1)OC(=O)Nc1cc([N+](=O)[O-])cc([N+](=O)[O-])c1 (stereo not given)									> 100	> 100	> 100			
